Source: publication PMC4537050, “A long pentraxin-3-derived pentapeptide for the therapy of FGF8b-driven steroid hormone-regulated cancers” (Oncotarget, 2015)

What was measured:
FGF8b = target: T1, FGF8b (Homo sapiens, UniProt P55075); assay: SPR analysis of peptide binding to immobilized FGF8b; parameters: purchased PeproTech; conditions: for Kd / FGF8b binding (Kd): SPR, immobilized FGF8b, mean ± SEM; for FGF8b binding activity (in words): SPR on the FGF8b-coated sensor chip
T1 sequence (P55075 23-215 isoform P55075-3 limits assumed): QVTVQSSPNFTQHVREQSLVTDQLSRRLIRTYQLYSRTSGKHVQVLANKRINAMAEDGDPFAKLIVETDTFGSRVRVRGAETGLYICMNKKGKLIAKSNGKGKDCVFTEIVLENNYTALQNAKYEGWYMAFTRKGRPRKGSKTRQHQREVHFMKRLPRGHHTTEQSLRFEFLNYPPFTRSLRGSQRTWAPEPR
Procedure: A BIAcore X-100 apparatus (BIAcore Inc., Piscataway, NJ, USA) was used to set up the following experimental models. ARPCA and all the peptides mentioned in the present work were analyzed for their capacity to directly bind to immobilized FGF8b. To this purpose, FGF8b (20 μg/ml in 10 mM sodium acetate, pH 6.0) was allowed to react with a flow cell of a CM5 sensor chip that was previously activated with a mixture of 0.2 M N-ethyl-N′-(3-dimethylaminopropyl)-carbodiimide hydrochloride and 0.05 M N-hydroxysuccinimide (35 μl, flow rate 10 μl/min). After ligand immobilization, matrix neutralization was performed with 1.0 M ethanolamine (pH 8.5) (35 μl, flow rate 10 μl/min) and the activated/deactivated dextran was used as reference (control) system. Increasing concentrations of ARPCA (ranging between 8 μM and 2000 μM) were injected over the FGF8b-coated sensor chip and the response was recorded as a function of time tracking the SPR intensity change upon binding progression. Injection lasted for 4 min (flow rate 30 μl/min) to allow peptide association to immobilized FGF8b and was followed by 10 min of dissociation; each run was performed in HBS and the sensor chip was regenerated with 10 mM NaOH. […] Binding isotherm points were fitted with the Langmuir equation for monovalent binding. This allowed to evaluate the mass surface dissociation constant, Kd, and the scaling parameter that relates the SPR signal with the extent of binding, as the free parameters of the fitting. The errors on these parameters were assigned as a result of the fitting algorithm (95% confidence bounds). The best-fitting procedure was performed with the SigmaPlot 11.0 software package (Systat Software Inc.). Others FGFs were dissolved in 10mM sodium acetate at optimal pH, immobilized on CM5 sensorchips and tested for their capacity to bind ARPCA as described above.

[1] = test system: chick embryo chorioallantoic membrane (CAM); assay: Chick embryo CAM assay with growth factor alginate implants; format: in vivo; conditions: 4.5 pmoles FGF8b/plug; ARPCA 80 or 140 pmoles, ARPVA 140 pmoles; vessels counted at day 14
Procedure: (§1) Alginate plugs containing vehicle, FGF8b (4.5 pmoles/embryo), VEGF-A (4.5 pmoles/embryo) or S115 cells (2.5×10^4/embryo) in the absence or presence of ARPCA (80 or 140 pmoles/embryo) or ARPVA (140 pmoles/embryo) were placed on the CAM of fertilized white leghorn chicken eggs at day 11 of incubation. At day 14, newly formed blood microvessels converging toward the implant were counted by two observers in a double-blind fashion at 5x magnification under a stereomicroscope (STEMI-SR, x2/0.12; Zeiss) as described.

S115 cells = assay: S115 cell proliferation assay; format: cell-based, mouse; conditions: 30 ng/ml FGF8b or 10 nM DHT, 48 h, viable cell counting
Procedure: (§2) HUVECs were seeded at 18000 cells/cm^2 in medium containing 2.5% FBS and stimulated with 30 ng/ml FGF8b in the absence or presence of increasing concentrations of ARPCA or ARPVA. S115 cells were seeded at 15000 cells/cm^2 in medium containing 4% hormone-deprived dextran-coated charcoal-stripped heat inactivated FBS, followed by 24 h serum starvation in 1:1 mixture of serum-free Ham's F12 and DMEM. Cells were stimulated for 48 h with 30 ng/ml FGF8b or 10 nM DHT in the presence or absence of different concentrations of ARPCA or ARPVA (as specified in the corresponding figures). Viable cell counts were obtained by the counting function of the MACSQuant® Analyzer (Miltenyi Biotec, Bergisch-Gladbach, Germany, EU).

[2] = test system: S115 cells grafted onto the chick embryo CAM; assay: CAM assay with DHT-treated S115 cell grafts; format: in vivo; conditions: 2.5 × 10^4 cells/embryo; ARPCA 80 or 140 pmoles/embryo, ARPVA 140 pmoles/embryo; day 14
Procedure: as §1

HUVECs = assay: HUVEC proliferation in response to FGF8b; format: cell-based, human; conditions: 30 ng/ml FGF8b, 48 h, concentrations as high as 300 μM
Procedure: as §2

Row | Substance | Kd (FGF8b) [mM] | FGF8b binding activity (in words) (FGF8b) | other results
1 | Ac-APCRA-NH2 [Ac-APCRA-NH2] | > 3 |  | 
2 | Ac-ARACA-NH2 [Ac-ARACA-NH2] | > 3 | activity was lost | 
3 | Ac-ARGCA-NH2 [Ac-ARGCA-NH2] | > 3 | activity was lost | 
4 | Ac-ARPCG-NH2 [Ac-ARPCG-NH2] | 1.9 ± 0.2 | dramatically reduced | 
5 | Ac-ARPMA-NH2 [Ac-ARPMA-NH2] | > 3 | activity was lost | 
6 | Ac-ARPSA-NH2 [Ac-ARPSA-NH2] |  | activity was lost | FGF8b binding (Kd) (FGF8b): nb
7 | Ac-ARPVA-NH2 [Cys4-replaced ARPCA pentapeptide mutant used as a negative control, reference compound] |  | activity was lost | angiogenic response elicited by FGF8b in the CAM [1]: No inhibitory effect; mitogenic response of S115 cells to FGF8b or DHT (S115 cells): ineffective; neovascular response elicited by DHT-pretreated S115 cells on the CAM [2]: no effect; effect on HUVEC proliferation in response to FGF8b (in words) (HUVECs): no significant effect; FGF8b binding (Kd) (FGF8b): nb
8 | Ac-GRPCG-NH2 [Ac-GRPCG-NH2] | > 3 | dramatically reduced | 
9 | H-ARPCA-NH2 [H-ARPCA-NH2] | 2.9 ± 0.55 | dramatically reduced | 
